# Measured values published in patent US6468973B1, “Method in the treatment of schizophrenia” (priority 1998, dated 2002).
# Test system: patient with a severe form of schizophrenia
# Experiment: Case study: treatment of a patient with a severe form of schizophrenia with a GnRH-analogue
# Format: in vivo, human
# Experimental: 3. […] The patient had previously been treated with various dopamine receptor antagonists without any major improvement.
# The GnRH-analogue triptorelin is available in a pharmaceutical preparation (Decapeptyl® Depot). In the use of this preparation, an injection is administered containing triptorelin embonate in a dose corresponding to 3.75 mg triptorelin. Injections with this dose are given intramuscularly. They should be repeated every fourth week from the first injection.
# A detailed case study of the treatment of a patient with a severe form of schizophrenia is disclosed in the following, as supporting evidence of the effect of the method.
# They had previously by other psychiatrists been given traditional treatment, for several years, without any major improvement in the symptoms of schizophrenia.
# The situation when the patient came to the clinic was that they had sickness pension since more than twenty years. Their contacts with other persons were highly restraint. […] The clinical diagnosis was that they suffered from a very serious form of schizophrenia. They had no signs of any other mental illness or personality disorder. Thus, it was a clearly defined case of schizophrenia.
# Certain symptoms of androgenic hyperactivity such as a male pattern baldness and frequent sexual delusions were also found at the initial examination.
# An endocrinological investigation was performed, based upon their symptoms of androgenic hyperactivity. This disclosed a low blood concentration of free testosterone. Since the patient had symptoms of androgenic hyperactivity this laboratory finding could, however, not be a symptom of a low androgenic activity. Instead, the interpretation of this laboratory finding was that it was a sign of a compensatory reduction in the synthesis and release of testosterone occurring as a consequence of an increased androgenic activity in the brain.
# During long periods of time the patient had been treated with the drugs which presently are considered to have the best effect against schizophrenia.
# In order to overcome the sexual delusions, treatment with the long-acting GnRH-analogue triptorelin (Decapeptyl® Depot) was given every fourth week as deep intramuscular depot injections with a dose corresponding to 1.75 mg triptorelin in each injection. Initially, they were also treated with flutamid in order to prevent a transient increase in androgenic activity.
# It is obvious that the dramatic improvement of the patient was caused by the treatment with a GnRH-analogue.
# [1] = same patient and regimen, after another three months (five months in total)
smiles,measurement,setting,value
CC(C)C[C@H](NC(=O)[C@@H](Cc1c[nH]c2ccccc12)NC(=O)[C@H](Cc1ccc(O)cc1)NC(=O)[C@H](CO)NC(=O)[C@H](Cc1c[nH]c2ccccc12)NC(=O)[C@H](Cc1c[nH]cn1)NC(=O)[C@@H]1CCC(=O)N1)C(=O)N[C@@H](CCCNC(=N)N)C(=O)N1CCC[C@H]1C(=O)NCC(N)=O [triptorelin],clinical improvement of schizophrenia,"one patient, very severe schizophrenia, after six months of treatment, previously dopamine receptor antagonists without major improvement",dramatically improved
same,patient's condition (schizophrenia symptoms),"person, Decapeptyl Depot i.m. every fourth week, dose corresponding to 1.75 mg triptorelin, initially with flutamid, after two months treatment",began to feel better
same,delusions,[1],markedly reduced
same,hallucinations,[1],all hallucinations had disappeared
same,patient's condition (schizophrenia symptoms),[1],dramatically better
